The record followed here is PubChem BioAssay (NCI).

Molecules are shown by their SMILES.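 Briefly, cells in 96-well plates were exposed to five compound concentrations for 48 h, and endpoints were estimated by linear interpolation. The concentration for full growth arrest is given as TGI.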

What all share (experiment): inhibition of tumour cell growth, NCI panel, 48 h
Assay [1] has as its system NCI-H23 lung.
The subject of assay [2] is SR leukemia.
Assay [3] has as its system SK-MEL-5 melanoma.
Assay [4] has as its system BT-549 breast.
The test system of assay [5] is OVCAR-3 ovarian.
Assay [6] deals with HL-60(TB) leukemia.
The test system of assay [7] is UACC-62 melanoma.
In assay [8] the test system is NCI/ADR-RES ovarian.

Consider `O=C(COc1cc(=O)oc2ccccc12)c1ccccc1`, for which the TGI in assay [1] is 65.2 µM; in assay [2], above 100 µM; in assay [3] it was above 100 µM; in assay [4] it was above 100 µM; in assay [5], 39.9 µM; in assay [6], above 100 µM. Further, the TGI in assay [7] was 44.1 µM.
As for `Cc1nc2c(Cl)cc(Cl)cc2c2c1CCO2`, the TGI in assay [1], in assay [8], in assay [2], in assay [3], in assay [4] and in assay [6] was above 100 µM in each case. This compound also had a TGI in assay [7] above 100 µM.
As to `N=c1oc2ccc3ccccc3c2cc1-c1nc2ccccc2c(=O)[nH]1`, the TGI in assay [8] is above 100 µM; in assay [2], above 100 µM; in assay [3], above 100 µM; in assay [4] it was 68.5 µM; in assay [6] it was above 100 µM; in assay [7] it was 44.1 µM.
Turning to `COc1cc(C[C@@]2(C)[C@@H]3CCC[C@H](CO)[C@@]3(C)CC[C@@H]2C)c(Cl)c(OC)c1`, the TGI in assay [1] was 37.2 µM; in assay [8], 31.3 µM; in assay [2] it was 48.5 µM; in assay [3] it was 31.8 µM; in assay [4] it was 33.8 µM; in assay [5], 28.8 µM. For the same compound, the TGI amounted to 47.3 µM in assay [6] and 28.9 µM in assay [7].
Regarding `CCC1c2[nH]c3ccccc3c2C[C@H]2C(=O)NC(C)C(=O)N12` (some centres not stated), the TGI in assay [1], in assay [8], in assay [2], in assay [3], in assay [4] and in assay [5] was above 100 µM in each case. The TGI in assay [6] and in assay [7] was above 100 µM each time.
For `Cc1[nH]n(-c2nc(-c3ccccc3)cc(=O)[nH]2)c(=O)c1CCO`, the TGI in assay [1], in assay [8], in assay [3], in assay [5], in assay [6] and in assay [7] was above 100 µM throughout.
For `CC(C)(C)OC(=O)NC(CSCc1ccc(C(=O)c2ccccc2)cc1)C(=O)N1CCN(CCCCN2c3ccccc3Sc3cc(N=[N+]=[N-])ccc32)CC1` (configuration not stated), the TGI in assay [1], in assay [8], in assay [3], in assay [4], in assay [5] and in assay [6] was above 100 µM throughout. This compound also displayed a TGI in assay [7] above 100 µM.
As to `Nc1cc(C2CCCc3c2[nH]c2ccccc32)ccc1O` (configuration not stated), the TGI in assay [1], in assay [8], in assay [2], in assay [3], in assay [4] and in assay [5] was above 100 µM throughout. Further, the TGI is 50.3 µM in assay [6] and above 100 µM in assay [7].
For the compound `COc1cc(/C=C/C(=O)CC(=O)/C=C/c2cc(C)c(O)c(OC)c2)cc(C)c1O`, the TGI in assay [1], in assay [8], in assay [2], in assay [3], in assay [4] and in assay [5] was above 100 µM each time. The TGI in assay [6] and in assay [7] was above 100 µM in each case.
Regarding `O=[N+]([O-])c1ccc2c(c1)nc1n2C(c2c(F)cccc2F)SC1` (configuration not stated), the TGI in assay [1], in assay [8], in assay [2], in assay [3], in assay [4] and in assay [5] was above 100 µM throughout. Moreover, the TGI in assay [6] and in assay [7] was above 100 µM each time.
Turning to `COc1cc(/C=C2\C(=O)N(c3cccc(NC(C)=O)c3)C(c3ccccc3)S2(=O)=O)cc(OC)c1OC` (configuration not stated), the TGI in assay [1], in assay [8], in assay [2], in assay [3], in assay [4] and in assay [5] was above 100 µM in each case. The figures for the TGI in assay [6] and in assay [7] were 44.5 µM and above 100 µM, respectively.
Take `CC1=NNC(=O)C1C1(C(=O)O)CC(c2c[nH]c3ccccc23)=NC(=S)N1` (configuration not stated): the TGI was 56.8 µM in assay [1]; above 100 µM in assay [8]; 27.5 µM in assay [3]; above 100 µM in assay [4]; 65.8 µM in assay [5]; 90.1 µM in assay [6]. The compound further came in with a TGI in assay [7] above 100 µM.
For the compound `Nc1cc(OCC2CCCCC2)nc(N)n1`, the TGI in assay [1], in assay [8], in assay [3], in assay [4], in assay [5] and in assay [6] was above 100 µM in each case. Also, in assay [7], the TGI is above 100 µM.
As for `CS(=O)(=O)OCCN(CCOS(C)(=O)=O)c1ccc(C=Nc2ccc(-c3csc(Cc4ccccc4)n3)cc2)c(Cl)c1`, the TGI in assay [1] was 70.6 µM; in assay [8], above 70 µM; in assay [2] it was 74.3 µM; in assay [3] it was 40.2 µM; in assay [5] it was above 63.7 µM; in assay [6], 35.7 µM. Moreover, in assay [7], the TGI was above 47.7 µM.
As for `CCC(C)C(Nc1c2ccccc2nc2c(C(=O)NCCN(C)C)cccc12)C(=O)O` (configuration not stated), the TGI in assay [1] is 79.3 µM; in assay [8], 77.6 µM; in assay [2] it was above 100 µM; in assay [3] it was above 100 µM; in assay [5] it was above 100 µM; in assay [7], 47.4 µM.
Take `Cc1cn(S(=O)(=O)c2ccccc2)c2c(OCc3ccccc3)cc([N+](=O)[O-])cc12`: the TGI in assay [1], in assay [8], in assay [3], in assay [4], in assay [5] and in assay [6] was above 100 µM in each case. In assay [7], this compound gave a TGI above 100 µM.
With `COC(=O)c1ccc(OCCn2nnc(C(=O)NN)c2C(=O)NN)cc1`, the TGI in assay [1], in assay [8], in assay [2], in assay [3], in assay [4] and in assay [5] was above 100 µM each time. Further, the TGI in assay [6] was above 100 µM.
